Assay in all cases: microbe, parasite or virus in culture
Common to all, as to assay type: cell-based

Experiment [1] relates to Pseudomonas aeruginosa ATCC 27853. The method, then:
(§1) Antimicrobial testing of 78 cathelicidin MPs was performed in two phases as outlined in Figure 1 . In phase I, 40 peptides (27 extant and 13 ancestral) were selected for testing based on rank (outlined above) and similarity to published marsupial cathelicidins with known antimicrobial activity ([33], [41]–[43]). These peptides were tested against nine bacteria (Staphylococcus aureus ATCC 29213 and clinical isolate, Escherichia coli ATCC 25922 and clinical isolate, Pseudomonas aeruginosa ATCC 27853 and clinical isolate, Streptococcus agalactiae ATCC 12386 and clinical isolate, Streptococcus pneumoniae ATCC 49619) and three fungi (Candida krusei ATCC 6258, Candida parapsilosis ATCC 22019, and Candida albicans clinical isolate). Details regarding these strains are available in Supplementary Table 4 . The antimicrobial activity of cathelicidins was determined as the minimum inhibitory concentration (MIC), which was the lowest concentration of cathelicidin that prevented visible bacterial or fungal growth, relative to the negative control. […] Minimum bactericidal concentration (MBC) and/or minimum fungicidal concentration (MFC) was conducted to determine microbicidal versus static action. Activity against S. aureus ATCC, E. coli ATCC, and Pseudomonas aeruginosa ATCC 27853 was examined in the presence of divalent cations to determine the impact of inhibitors.
(§2) In phase II, the remaining 38 peptides (37 extant and one ancestral) were tested against six bacteria (S. aureus ATCC and clinical isolate, E. coli ATCC and clinical isolate, and P. aeruginosa ATCC and clinical isolate). […] No further testing on phase II peptides was performed. Detailed methods for all assays are provided in subsequent sections.
(§3) Antimicrobial activity was determined using a broth microdilution susceptibility assay in 96 well polypropylene plates according to Clinical Laboratory Standards Institute guidelines M07-A and M26A as described previously ([33], [42], [43]). The bacterial and fungal isolates from humans and animals used in this study are outlined in Supplementary Table 4 . Only yeasts were included in the panel of fungi as they have been used in the susceptibility testing of eutherian ([3], [81]–[83]) and other marsupial cathelicidins previously ([33], [42], [43]). Cathelicidin mature peptides were solubilized in DMSO and serially diluted in duplicate from 128-0.25μg/mL in a final volume of 100µL. For bacteria, cathelicidins were diluted in Mueller Hinton Broth (MHB) with or without 10% lysed horse blood, and with (MH II B) or without (MHB) calcium and magnesium cations. For fungi, cathelicidins were diluted in Roswell Park Memorial Institute medium (RPMI)-1640 MOPS. Ampicillin or tetracycline were included as a positive control for Gram-positive and -negative bacteria respectively, while amphotericin B was used for fungi. A media-only negative control and growth control (no cathelicidin) were also included on each plate. Bacteria were sub-cultured on Muller Hinton agar (MHA) or sheep blood agar (BA), and fungi on Sabouraud dextrose agar (SAB), 20–24 hours prior to the test. Colonies were suspended in saline, the concentration adjusted to a 0.5 McFarland standard, and then diluted in media to a concentration of 1.0 x 10^6 cells/mL. Then, 100μL was added to each well of the cathelicidin dilution plate, giving a final inoculum density of 5 x 10^5 CFU/mL and cathelicidin concentration of 64-0.125μg/mL. Colony counts were performed on MHA/BA/SAB to confirm inoculum density. All plates were incubated at 35°C for 20–24 hours, depending on the strain.
(§4) Colonies were counted and compared to the colony count of the starting inoculum.

Experiment [2] deals with Pseudomonas aeruginosa clinical isolate - animal. The method, then: as §1, §2, §3, §4
In experiment [3] the test system is Staphylococcus aureus ATCC 29213. As to conditions: ATCC 29213; for MIC: read-out: MIC S. aureus ATCC. The procedure: as §1, §2, §3, §4
The test system of experiment [4] is Escherichia coli clinical isolate - animal. The conditions noted are these: clinical isolate - animal. The method, then:
as §1, §2, §3, §4

Experiment [5] has as its system Escherichia coli ATCC 25922. As to conditions: ATCC 25922. The method, then: as §1, §2, §3, §4
Experiment [6] relates to Staphylococcus aureus clinical isolate - animal. As to conditions: clinical isolate - animal; for MIC: read-out: MIC S. aureus. The method, then:
as §1, §2, §3, §4

The mark [7] stands for this setting: ATCC 27853, read-out: MIC P. aeruginosa ATCC.
The mark [8] stands for this setting: clinical isolate - animal, read-out: MIC P. aeruginosa.

In brackets after ≈: the same amount, converted by molar mass. Read-outs that look alike come from different tables or passages of the source. Where a SMILES comes first, the peptide text is derived from it. Where only a bound is given, the exact number is not on record here.

Regarding `CC[C@H](C)[C@H](NC(=O)[C@H](CCCNC(=N)N)NC(=O)[C@H](CCCNC(=N)N)NC(=O)[C@H](C)N)C(=O)N[C@@H](CCCNC(=N)N)C(=O)N[C@@H](CCCNC(=N)N)C(=O)N1CCC[C@H]1C(=O)N[C@@H](Cc1ccc(O)cc1)C(=O)N[C@@H](CC(C)C)C(=O)N1CCC[C@H]1C(=O)N[C@@H](CCCNC(=N)N)C(=O)N1CCC[C@H]1C(=O)N[C@@H](CCCNC(=N)N)C(=O)N1CCC[C@H]1C(=O)N[C@@H](CCCNC(=N)N)C(=O)N1CCC[C@H]1C(=O)N[C@@H](CC(N)=O)C(=O)N[C@@H](Cc1ccccc1)C(=O)N1CCC[C@H]1C(=O)N1CCC[C@H]1C(=O)N1CCC[C@H]1C(=O)N[C@@H](CCCNC(=N)N)C(=O)N1CCC[C@H]1C(=O)N[C@@H](CCCNC(=N)N)C(=O)N1CCC[C@H]1C(=O)NCC(=O)N[C@@H](CCCNC(=N)N)C(=O)N[C@@H](CO)C(=O)N[C@H](C(=O)O)C(C)C` [AnstCath2] (H-ARRIRRPYLPRPRPRPNFPPPRPRPGRSV-OH), the MIC in experiment [1] (setting [7]) is over 18.2 µM; in experiment [2] (setting [8]), over 18.2 µM; in experiment [3], over 18.2 µM; in experiment [4], 9.1 µM (≈ 32 µg/mL); in experiment [6], over 18.2 µM. The “MBC E. coli” value in experiment [4] was determined as 18.2 µM (≈ 64 µg/mL). In experiment [5], this compound had an MBC E. coli ATCC of 4.5 µM (≈ 15.8 µg/mL). In experiment [5], this compound registered an MIC E. coli ATCC of 4.5 µM (≈ 15.8 µg/mL).
Take `CC[C@H](C)[C@H](NC(=O)[C@H](CC(C)C)NC(=O)[C@H](CC(N)=O)NC(=O)[C@@H](NC(=O)[C@H](Cc1ccccc1)NC(=O)CNC(=O)[C@@H](N)Cc1c[nH]c2ccccc12)[C@@H](C)O)C(=O)N[C@@H](Cc1ccc(O)cc1)C(=O)N[C@@H](CCC(N)=O)C(=O)N[C@@H](CCCCN)C(=O)N[C@@H](Cc1ccc(O)cc1)C(=O)N[C@@H](CCCCN)C(=O)N[C@@H](CC(C)C)C(=O)N[C@@H](CC(C)C)C(=O)N[C@@H](CCCNC(=N)N)C(=O)N[C@@H](CC(N)=O)C(=O)N[C@H](C(=O)N[C@@H](Cc1ccccc1)C(=O)N[C@@H](CCCNC(=N)N)C(=O)N[C@@H](CCCCN)C(=O)N[C@@H](CC(C)C)C(=O)N[C@@H](CCCNC(=N)N)C(=O)N[C@@H](CC(N)=O)C(=O)N[C@H](C(=O)N[C@@H](CO)C(=O)N[C@@H](CO)C(=O)NCC(=O)NCC(=O)N[C@@H](CCCNC(=N)N)C(=O)N[C@@H](CC(=O)O)C(=O)N[C@@H](CC(N)=O)C(=O)N[C@@H](CCCCN)C(=O)N[C@@H](CCCCN)C(=O)O)[C@@H](C)O)C(C)C` [BepeCath4] (H-WGFTNLIYQKYKLLRNVFRKLRNTSSGGRDNKK-OH): in experiment [1] (setting [7]), the MIC is recorded as over 15.9 µM. For the same compound, the MIC in experiment [2] (setting [8]) is listed as over 15.9 µM. Also, in experiment [3], the “MBC S. aureus ATCC” value amounted to 15.9 µM (≈ 63.6 µg/mL) and the MIC is recorded as 7.9 µM (≈ 31.6 µg/mL). In experiment [4], the “MBC E. coli” value is on record as 7.9 µM (≈ 31.6 µg/mL) and the MIC amounted to 3.9 µM (≈ 15.6 µg/mL). In experiment [5], this compound returned an MBC E. coli ATCC of 3.9 µM (≈ 15.6 µg/mL) and an MIC E. coli ATCC of 3.9 µM (≈ 15.6 µg/mL). Further, in experiment [6], the MBC S. aureus is 7.9 µM (≈ 31.6 µg/mL) and the MIC S. aureus came to 7.9 µM (≈ 31.6 µg/mL).
Regarding `CC[C@H](C)[C@H](NC(=O)CNC(=O)[C@H](Cc1ccccc1)NC(=O)CNC(=O)[C@@H](NC(=O)[C@@H](NC(=O)[C@H](CCCNC(=N)N)NC(=O)[C@H](CCCNC(=N)N)NC(=O)[C@H](CCCNC(=N)N)NC(=O)[C@@H](NC(=O)[C@H](CO)NC(=O)[C@H](CC(N)=O)NC(=O)[C@H](CCCCN)NC(=O)[C@H](CC(C)C)NC(=O)[C@H](CCCCN)NC(=O)[C@H](CCSC)NC(=O)CNC(=O)[C@@H](NC(=O)[C@H](CCCCN)NC(=O)[C@H](CCCCN)NC(=O)[C@@H](NC(=O)[C@@H](NC(=O)[C@H](CC(=O)O)NC(=O)[C@H](Cc1c[nH]c2ccccc12)NC(=O)[C@H](CC(C)C)NC(=O)CNC(=O)[C@H](CCCNC(=N)N)NC(=O)[C@@H](N)CCCCN)[C@@H](C)O)C(C)C)[C@@H](C)O)[C@@H](C)CC)C(C)C)[C@@H](C)O)C(=O)NCC(=O)N[C@H](C(=O)N[C@@H](C)C(=O)N[C@H](C(=O)N[C@@H](CC(C)C)C(=O)N[C@H](C(=O)N1CCC[C@H]1C(=O)N[C@@H](CCCNC(=N)N)C(=O)O)C(C)C)[C@@H](C)CC)[C@@H](C)O` [LahiCath5] (H-KRGLWDTVKKTGMKLKNSIRRRVTGFGIGTAILVPR-OH), the MIC in experiment [1] (setting [7]) is reported as over 15.7 µM; in experiment [2] (setting [8]) it was over 15.7 µM; in experiment [3], over 15.7 µM; in experiment [4], 3.9 µM (≈ 15.8 µg/mL); in experiment [6], over 15.7 µM. Moreover, the “MBC E. coli” value in experiment [4] is 7.8 µM (≈ 31.6 µg/mL). This compound yielded an MBC E. coli ATCC in experiment [5] of 3.9 µM (≈ 15.8 µg/mL). In experiment [5], this compound returned an MIC E. coli ATCC of 3.9 µM (≈ 15.8 µg/mL).
For `CC[C@H](C)[C@H](NC(=O)[C@H](CC(N)=O)NC(=O)[C@H](CCCNC(=N)N)NC(=O)[C@H](CC(C)C)NC(=O)[C@H](CCCCN)NC(=O)[C@H](CCCNC(=N)N)NC(=O)[C@H](Cc1ccccc1)NC(=O)[C@@H](NC(=O)[C@H](CC(N)=O)NC(=O)[C@H](CCC(N)=O)NC(=O)[C@H](CC(C)C)NC(=O)[C@@H](NC(=O)[C@H](CCCNC(=N)N)NC(=O)[C@H](Cc1ccc(O)cc1)NC(=O)[C@H](CCCCN)NC(=O)[C@H](CCC(N)=O)NC(=O)[C@H](Cc1ccc(O)cc1)NC(=O)[C@@H](NC(=O)[C@H](CC(C)C)NC(=O)[C@@H](N)CC(N)=O)[C@@H](C)CC)[C@@H](C)CC)C(C)C)C(=O)N[C@@H](Cc1ccccc1)C(=O)N[C@@H](CO)C(=O)N[C@@H](CCCNC(=N)N)C(=O)NCC(=O)N[C@@H](CCCNC(=N)N)C(=O)N[C@@H](CC(=O)O)C(=O)N[C@@H](CC(=O)O)C(=O)N[C@@H](CCCCN)C(=O)N[C@@H](CCC(=O)O)C(=O)O` [MaruCath9] (H-NLIYQKYRILQNVFRKLRNIFSRGRDDKE-OH), the MIC in experiment [1] (setting [7]), in experiment [2] (setting [8]), in experiment [4] and in experiment [5] (read-out: MIC E. coli ATCC) was over 17.3 µM each time. The same compound displayed an MBC S. aureus ATCC in experiment [3] of 8.6 µM (≈ 31.7 µg/mL). In experiment [3], the MIC S. aureus ATCC is 8.6 µM (≈ 31.7 µg/mL). This compound yielded an MBC S. aureus in experiment [6] of 8.6 µM (≈ 31.7 µg/mL). In experiment [6], this compound gave an MIC S. aureus of 8.6 µM (≈ 31.7 µg/mL).
`CN(C)[C@@H]1C(O)=C(C(N)=O)C(=O)[C@@]2(O)C(O)=C3C(=O)c4c(O)cccc4[C@@](C)(O)[C@H]3C[C@@H]12` [Tetracycline, reference compound]: the MIC in experiment [1] (Pseudomonas aeruginosa, ATCC27853, MHB without cations, 5 x 10^5 CFU/mL, 35°C 20–24 hours, duplicate, read-out: MIC P. aeruginosa ATCC) was 32 µg/mL; in experiment [1] (Pseudomonas aeruginosa, ATCC27853, superscript value, cation-adjusted Mueller Hinton broth, read-out: MIC in the presence of cations P. aeruginosa ATCC) it was 32 µg/mL; in experiment [1] (Pseudomonas aeruginosa, ATCC27853, superscript value, cation-adjusted Mueller Hinton broth, µM equivalent, read-out: MIC in the presence of cations P. aeruginosa ATCC), 72 µM; in experiment [1] (Pseudomonas aeruginosa, ATCC27853, µM equivalent of Table 3, read-out: MIC P. aeruginosa ATCC), 72 µM; in experiment [2] (Pseudomonas aeruginosa, clinical isolate, MHB without cations, 5 x 10^5 CFU/mL, 35°C 20–24 hours, duplicate, read-out: MIC P. aeruginosa), 32 µg/mL; in experiment [2] (Pseudomonas aeruginosa, clinical isolate, superscript value, cation-adjusted Mueller Hinton broth, read-out: MIC in the presence of cations P. aeruginosa), 32 µg/mL. For the same compound, the MIC in experiment [2] (Pseudomonas aeruginosa, clinical isolate, superscript value, cation-adjusted Mueller Hinton broth, µM equivalent, read-out: MIC in the presence of cations P. aeruginosa) is 72 µM; in experiment [2] (Pseudomonas aeruginosa, clinical isolate, µM equivalent of Table 3, read-out: MIC P. aeruginosa), 72 µM.
